Measurements reported in US9512075B2 (OKAYAMA UNIVERSITY, priority 2012, dated 2016).
≈ marks a conversion by molar mass, not a printed value. Like-named read-outs stand apart in the source and are kept apart here.

Tests used:
Assay type in all cases: cell-based
[1] = tested on: Escherichia coli BE1121 strain; experiment: MIC for Escherichia coli BE1121 strain; conditions: Escherichia coli, BE1121STRAIN, read-out: MIC Escherichia coli BE1121
[2] = tested on: Enterococcus faecalis 5038 strain; experiment: MIC for Enterococcus faecalis 5038 strain; conditions: read-out: MIC Enterococcus faecalis 5038
[3] = tested on: Staphylococcus aureus MRSA No. 17 (methicillin-resistant Staphylococcus aureus: MRSA); experiment: MIC for Staphylococcus aureus MRSA No. 17; conditions: read-out: MIC Straphyrococcus aureus MRSA No. 17 (MRSA)
[4] = tested on: Escherichia coli K-12 strain; experiment: MIC for Escherichia coli K-12 strain; conditions: Escherichia coli, K12STRAIN, read-out: MIC Escherichia coli K12
[5] = tested on: Clostridium perfringens PB6K strain; experiment: microbe, parasite or virus in culture; conditions: Clostridium perfringens, PB6KSTRAIN, read-out: MIC Clostridium perfringens PB6K, PB6K strain; CD medium, 37° C. overnight, 10% CO2-containing anaerobic conditions
[6] = tested on: Staphylococcus aureus 209P strain; experiment: MIC for Staphylococcus aureus 209P strain; conditions: Staphylococcus aureus, read-out: MIC Straphyrococcus aureus 209P
[7] = tested on: Staphylococcus aureus Smith strain; experiment: MIC for Staphylococcus aureus Smith strain; conditions: read-out: MIC Straphyrococcus aureus Smith
[8] = tested on: Enterococcus faecalis NCTC12201 strain (vancomycin-resistant Enterococcus: VRE); experiment: MIC for Enterococcus faecalis NCTC12201 strain (VRE); conditions: read-out: MIC Enterococcus faecalis NCTC 12201 (VRE)
[9] = tested on: Clostridium difficile JCM1296 strain; experiment: microbe, parasite or virus in culture; conditions: Clostridioides difficile, JCM1296, read-out: MIC Clostridium difficile JCM1296
[10] = BE1121 strain, regular bouillon medium, 37° C. overnight, turbidity
[11] = 5038 strain, Heart Infusion Broth medium, 37° C. overnight, turbidity
[12] = MRSA No. 17, regular bouillon medium, 37° C. overnight, turbidity
[13] = K-12 strain, regular bouillon medium, 37° C. overnight, turbidity
[14] = 209P strain, regular bouillon medium, 37° C. overnight, turbidity
[15] = Smith strain, regular bouillon medium, 37° C. overnight, turbidity
[16] = NCTC12201 strain (VRE), Heart Infusion Broth medium, 37° C. overnight, turbidity

SMILES | MIC [1, 10] | MIC [2, 11] | MIC [3, 12] | MIC [4, 13] | MIC [5] | MIC [6, 14] | MIC [7, 15] | MIC [8, 16] | MIC [9] | MIC ([3]; MRSA) | MIC [7] | MIC [8] | MIC ([2]; 5038STRAIN) | MIC [1] | MIC [4] | MIC ([6]; 209P)
CCCCC1CCC(C(O)=C2C(=O)N(C(=O)Nc3ccccc3)c3ccccc32)CC1 (stereo not drawn) [A016, N-(phenylaminocarbonyl)-3-(4-butylcyclohexylcarbonyl)-2-oxyindole] | 256 µg/mL (≈ 612 µM) | 1 µg/mL (≈ 2.39 µM) | 256 µg/mL (≈ 612 µM) | 256 µg/mL (≈ 612 µM) | 4 µg/mL (≈ 9.56 µM) | 128 µg/mL (≈ 306 µM) | 4 µg/mL (≈ 9.56 µM) | 0.5 µg/mL (≈ 1.19 µM) | 0.25 µg/mL (≈ 0.597 µM) | – | – | – | – | – | – | –
CCCCC1CCC(C(O)=C2C(=O)N(C(=O)Nc3ccccc3)c3ccc(Br)cc32)CC1 (stereo not drawn) [A034, N-(phenylaminocarbonyl)-5-bromo-3-(4-butylcyclohexylcarbonyl)-2-oxyindole] | 128 µg/mL (≈ 257 µM) | 1 µg/mL (≈ 2.01 µM) | 64 µg/mL (≈ 129 µM) | 128 µg/mL (≈ 257 µM) | 0.5 µg/mL (≈ 1.01 µM) | 32 µg/mL (≈ 64.3 µM) | 1 µg/mL (≈ 2.01 µM) | 1 µg/mL (≈ 2.01 µM) | 0.5 µg/mL (≈ 1.01 µM) | – | – | – | – | – | – | –
CCCCCCCCCC(O)=C1C(=O)N(C(=O)Nc2ccc(OC)cc2)c2ccc(F)cc21 [A048, N-(4-methoxyphenylaminocarbonyl)-3-decanoyl-5-fluoro-2-oxyindole] | 256 µg/mL (≈ 563 µM) | 128 µg/mL (≈ 282 µM) | – | 256 µg/mL (≈ 563 µM) | 256 µg/mL (≈ 563 µM) | 256 µg/mL (≈ 563 µM) | – | – | 32 µg/mL (≈ 70.4 µM) | 256 µg/mL (≈ 563 µM) | 256 µg/mL (≈ 563 µM) | 256 µg/mL (≈ 563 µM) | – | – | – | –
CCCCCCCCOCC(=O)c1c(O)c2ccccc2oc1=O [B030, 3-octyloxyacetyl-4-hydroxycoumarin] | 2 µg/mL (≈ 6.02 µM) | – | – | 128 µg/mL (≈ 385 µM) | 0.25 µg/mL (≈ 0.752 µM) | 4 µg/mL (≈ 12 µM) | – | – | 0.25 µg/mL (≈ 0.752 µM) | 1 µg/mL (≈ 3.01 µM) | 2 µg/mL (≈ 6.02 µM) | 4 µg/mL (≈ 12 µM) | 2 µg/mL (≈ 6.02 µM) | – | – | –
CCCCCCCCCCOC(C)C(O)=C1C(=O)N(C(=O)Nc2ccccc2)c2ccccc21 (stereo not drawn) [A021, N-(phenylaminocarbonyl)-3-(2-decyloxypropionyl)-2-oxyindole] | 256 µg/mL (≈ 551 µM) | 0.5 µg/mL (≈ 1.08 µM) | 256 µg/mL (≈ 551 µM) | 256 µg/mL (≈ 551 µM) | 2 µg/mL (≈ 4.3 µM) | 128 µg/mL (≈ 276 µM) | 0.5 µg/mL (≈ 1.08 µM) | 0.5 µg/mL (≈ 1.08 µM) | 1 µg/mL (≈ 2.15 µM) | – | – | – | – | – | – | –
CCCCCCCCCC(=O)N1C(=O)C(=C(O)c2ccc(OC)cc2)c2ccccc21 [A062, N-decanoyl-3-(4-methoxybenzoyl)-2-oxyindole] | 256 µg/mL (≈ 607 µM) | – | – | 256 µg/mL (≈ 607 µM) | 8 µg/mL (≈ 19 µM) | 128 µg/mL (≈ 304 µM) | – | – | 4 µg/mL (≈ 9.49 µM) | 16 µg/mL (≈ 38 µM) | 2 µg/mL (≈ 4.74 µM) | 2 µg/mL (≈ 4.74 µM) | 2 µg/mL (≈ 4.74 µM) | – | – | –
CCCCCCCCCCOCC(O)=C1C(=O)N(C(C)=O)c2cc(Cl)ccc21 [A017, N-acetyl-3-decyloxyacetyl-6-chloro-2-oxyindole] | 128 µg/mL (≈ 314 µM) | – | 16 µg/mL (≈ 39.2 µM) | 128 µg/mL (≈ 314 µM) | < 0.125 µg/mL | 128 µg/mL (≈ 314 µM) | – | – | < 0.125 µg/mL | – | < 0.125 µg/mL | < 0.125 µg/mL | < 0.125 µg/mL | – | – | –
CCCCCCCCCCSCC(O)=C1C(=O)N(C(C)=O)c2ccc(Br)cc21 [A030, N-acetyl-5-bromo-3-decylthioacetyl-2-oxyindole] | 8 µg/mL (≈ 17.1 µM) | 0.25 µg/mL (≈ 0.534 µM) | 2 µg/mL (≈ 4.27 µM) | 256 µg/mL (≈ 546 µM) | < 0.125 µg/mL | 2 µg/mL (≈ 4.27 µM) | 0.25 µg/mL (≈ 0.534 µM) | 0.25 µg/mL (≈ 0.534 µM) | < 0.125 µg/mL | – | – | – | – | – | – | –
CCCCCCCCCCOCC(=O)c1c(O)c2ccccc2oc1=O [B015, 3-decyloxyacetyl-4-hydroxycoumarin] | – | – | – | – | 25 µg/mL (≈ 69.4 µM) | – | – | – | 0.25 µg/mL (≈ 0.694 µM) | 8 µg/mL (≈ 22.2 µM) | 2 µg/mL (≈ 5.55 µM) | 2 µg/mL (≈ 5.55 µM) | 4 µg/mL (≈ 11.1 µM) | 128 µg/mL (≈ 355 µM) | 256 µg/mL (≈ 710 µM) | 8 µg/mL (≈ 22.2 µM)
CCCCCCCCCC(=O)N[C@@H](C)C(=O)c1c(O)c2ccccc2oc1=O [B011, 3-(2-decanoylaminopropionyl)-4-hydroxycoumarin] | 256 µg/mL (≈ 661 µM) | 256 µg/mL (≈ 661 µM) | 256 µg/mL (≈ 661 µM) | 256 µg/mL (≈ 661 µM) | 1 µg/mL (≈ 2.58 µM) | 256 µg/mL (≈ 661 µM) | 256 µg/mL (≈ 661 µM) | 256 µg/mL (≈ 661 µM) | 2 µg/mL (≈ 5.16 µM) | – | – | – | – | – | – | –
CCCCCCCCCCOC(C)C(=O)c1c(O)c2ccccc2oc1=O (stereo not drawn) [B017, 3-(2-decyloxypropionyl)-4-hydroxycoumarin] | 256 µg/mL (≈ 684 µM) | – | – | 256 µg/mL (≈ 684 µM) | 0.25 µg/mL (≈ 0.668 µM) | 8 µg/mL (≈ 21.4 µM) | – | – | < 0.125 µg/mL | 4 µg/mL (≈ 10.7 µM) | 2 µg/mL (≈ 5.34 µM) | 0.5 µg/mL (≈ 1.34 µM) | 1 µg/mL (≈ 2.67 µM) | – | – | –
CCCCCCCCCC(O)=C1C(=O)Nc2cc(Cl)ccc21 [A002, 3-decanoyl-6-chloro-2-oxyindole] | – | 16 µg/mL (≈ 49.7 µM) | 16 µg/mL (≈ 49.7 µM) | – | 32 µg/mL (≈ 99.4 µM) | – | 16 µg/mL (≈ 49.7 µM) | 15 µg/mL (≈ 46.6 µM) | 32 µg/mL (≈ 99.4 µM) | – | – | – | – | 128 µg/mL (≈ 398 µM) | 128 µg/mL (≈ 398 µM) | 16 µg/mL (≈ 49.7 µM)
CCCCCCCCCC(=O)N1C(=O)C(=C(O)c2ccccc2O)c2ccccc21 [A063, N-decanoyl-3-(2-hydroxybenzoyl)-2-oxyindole] | 128 µg/mL (≈ 314 µM) | – | – | 128 µg/mL (≈ 314 µM) | 256 µg/mL (≈ 628 µM) | 256 µg/mL (≈ 628 µM) | – | – | 16 µg/mL (≈ 39.3 µM) | 256 µg/mL (≈ 628 µM) | 256 µg/mL (≈ 628 µM) | 256 µg/mL (≈ 628 µM) | 256 µg/mL (≈ 628 µM) | – | – | –
CCCCNC(=O)N1C(=O)C(=C(O)C2CCC(CCCC)CC2)c2ccccc21 (stereo not drawn) [A015, N-(butylaminocarbonyl)-3-(4-butylcyclohexylcarbonyl)-2-oxyindole] | 256 µg/mL (≈ 642 µM) | 8 µg/mL (≈ 20.1 µM) | 256 µg/mL (≈ 642 µM) | 256 µg/mL (≈ 642 µM) | 8 µg/mL (≈ 20.1 µM) | 256 µg/mL (≈ 642 µM) | 256 µg/mL (≈ 642 µM) | 8 µg/mL (≈ 20.1 µM) | 4 µg/mL (≈ 10 µM) | – | – | – | – | – | – | –
CCCCCCCCCCOCC(O)=C1C(=O)N(C(=O)Nc2ccccc2)c2ccc(Br)cc21 [A035, N-(phenylaminocarbonyl)-5-bromo-3-decyloxyacetyl-2-oxyindole] | 128 µg/mL (≈ 242 µM) | 4 µg/mL (≈ 7.55 µM) | 64 µg/mL (≈ 121 µM) | 128 µg/mL (≈ 242 µM) | 0.25 µg/mL (≈ 0.472 µM) | 64 µg/mL (≈ 121 µM) | 8 µg/mL (≈ 15.1 µM) | 2 µg/mL (≈ 3.78 µM) | 0.5 µg/mL (≈ 0.944 µM) | – | – | – | – | – | – | –
CCCCCCCCCCOC(C)C(O)=C1C(=O)N(C(=O)NCCCC)c2ccccc21 (stereo not drawn) [A020, N-(butylaminocarbonyl)-3-(2-decyloxypropionyl)-2-oxyindole] | 256 µg/mL (≈ 576 µM) | 0.5 µg/mL (≈ 1.12 µM) | 256 µg/mL (≈ 576 µM) | 256 µg/mL (≈ 576 µM) | 4 µg/mL (≈ 9 µM) | 256 µg/mL (≈ 576 µM) | 1 µg/mL (≈ 2.25 µM) | 1 µg/mL (≈ 2.25 µM) | 0.5 µg/mL (≈ 1.12 µM) | – | – | – | – | – | – | –
CCCCCCCCCC(=O)NCC(=O)c1c(O)c2ccccc2oc1=O [B016, 3-decanoylaminoacetyl-4-hydroxycoumarin] | 256 µg/mL (≈ 686 µM) | 256 µg/mL (≈ 686 µM) | 256 µg/mL (≈ 686 µM) | 256 µg/mL (≈ 686 µM) | 16 µg/mL (≈ 42.8 µM) | 256 µg/mL (≈ 686 µM) | 256 µg/mL (≈ 686 µM) | 256 µg/mL (≈ 686 µM) | 8 µg/mL (≈ 21.4 µM) | – | – | – | – | – | – | –
CCCCCCCCNC(=O)N1C(=O)C(=C(O)c2ccccc2)c2ccccc21 [A031, N-(octylaminocarbonyl)-3-benzoyl-2-oxyindole] | – | – | – | – | 0.25 µg/mL (≈ 0.637 µM) | – | – | – | 0.25 µg/mL (≈ 0.637 µM) | 256 µg/mL (≈ 652 µM) | 0.5 µg/mL (≈ 1.27 µM) | 0.25 µg/mL (≈ 0.637 µM) | 25 µg/mL (≈ 63.7 µM) | 256 µg/mL (≈ 652 µM) | 256 µg/mL (≈ 652 µM) | 0.25 µg/mL (≈ 0.637 µM)
CCCCCCCCCC(O)=C1C(=O)N(C(=O)Nc2ccc(OC(F)(F)F)cc2)c2ccccc21 [A053, N-(4-(trifluoromethoxy)phenylaminocarbonyl)-3-decanoyl-2-oxyindole] | 128 µg/mL (≈ 261 µM) | 128 µg/mL (≈ 261 µM) | 256 µg/mL (≈ 522 µM) | 128 µg/mL (≈ 261 µM) | 32 µg/mL (≈ 65.2 µM) | 256 µg/mL (≈ 522 µM) | 256 µg/mL (≈ 522 µM) | 128 µg/mL (≈ 261 µM) | 16 µg/mL (≈ 32.6 µM) | – | – | – | – | – | – | –
